The results in this text go back to ChEMBL document CHEMBL4152326 (2018).

Holding throughout (type): functional
Test [1] relates to Pseudomonas aeruginosa. Briefly: Antimicrobial activity against Pseudomonas aeruginosa SR24 in presence of human apo-transferrin by broth microdilution method.
Test [2] relates to Pseudomonas aeruginosa. Briefly: Antimicrobial activity against AmpC overproducing Pseudomonas aeruginosa SR24-12 in presence of human apo-transferrin by broth microdilution method. On the technique in general: Broth dilution looks for growth in wells or tubes with falling amounts of substance.
Test [3] relates to Pseudomonas aeruginosa. Nature of the test: Antimicrobial activity against IMP-1 producing Pseudomonas aeruginosa SR27001 in presence of human apo-transferrin by broth microdilution method.
Test [4] concerns Pseudomonas aeruginosa. Nature of the test: Antimicrobial activity against VIM-2 producing Pseudomonas aeruginosa SBRKM-28 in presence of human apo-transferrin by broth microdilution method.
Test [5] concerns Pseudomonas aeruginosa. Briefly: Antimicrobial activity against IMP-1 producing Pseudomonas aeruginosa SR27060 in presence of human apo-transferrin by broth microdilution method.
Test [6] deals with Pseudomonas aeruginosa. Briefly: Antimicrobial activity against Pseudomonas aeruginosa 27060deltaR1 harboring deletion of R1 plasmid in presence of human apo-transferrin by broth microdilution method.
Test [7] relates to Stenotrophomonas maltophilia. Nature of the test: Antimicrobial activity against L-1 producing Stenotrophomonas maltophilia SR21970 in presence of human apo-transferrin by broth microdilution method.
The next test relates to Acinetobacter baumannii. Briefly: Antimicrobial activity against OXA-23/OXA-58 producing Acinetobacter baumannii SR27323 in presence of human apo-transferrin by broth microdilution method.
Another test has as its system Klebsiella pneumoniae. Briefly: Antimicrobial activity against KPC-2 producing Klebsiella pneumoniae ATCC BAA-1705 in presence of human apo-transferrin by broth microdilution method.
A further test relates to Escherichia coli. Nature of the test: Antimicrobial activity against SHV-4 producing Escherichia coli ATCC BAA-200 in presence of human apo-transferrin by broth microdilution method.

In the case of `Nc1nc(/C(=N/O[C@@H](CC(=O)O)C(=O)O)C(=O)N[C@@H]2C(=O)N3C(C(=O)[O-])=C(C[N+]4(CCNC(=O)c5ccc(O)c(O)c5Cl)CCCC4)CS[C@H]23)cs1`, the MIC – broadly, the least concentration at which growth counts as inhibited – amounted to 0.25 µg/mL in the test on Pseudomonas aeruginosa [1]; 0.25 µg/mL in the test with Pseudomonas aeruginosa [2]; 1 µg/mL in the test on Pseudomonas aeruginosa [3]; 0.063 µg/mL with Pseudomonas aeruginosa [4]; 1 µg/mL in the test with Pseudomonas aeruginosa [5]; 0.5 µg/mL in the test with Pseudomonas aeruginosa [6]. The minimal inhibitory concentration (MIC) in test [7] came to 0.25 µg/mL; in the test on Acinetobacter baumannii it was 1 µg/mL; with Klebsiella pneumoniae, 0.063 µg/mL; in the test on Escherichia coli it was 1 µg/mL.
Turning to `CC(C)(O/N=C(\C(=O)N[C@@H]1C(=O)N2C(C(=O)[O-])=C(C[N+]3(CCNC(=O)c4ccc(O)c(O)c4Cl)CCCCC3)CS[C@H]12)c1csc(N)n1)C(=O)O`, the MIC in the test on Pseudomonas aeruginosa [1] stood at 0.25 µg/mL; with Pseudomonas aeruginosa [2], 0.25 µg/mL; in the test with Pseudomonas aeruginosa [3], 1 µg/mL; with Pseudomonas aeruginosa [4], 0.125 µg/mL; in the test with Pseudomonas aeruginosa [5], 2 µg/mL; in the test on Pseudomonas aeruginosa [6], 1 µg/mL. Also, the MIC in test [7] was found to be 0.25 µg/mL; with Acinetobacter baumannii, 1 µg/mL; with Klebsiella pneumoniae it was 0.031 µg/mL; in the test with Escherichia coli, 0.5 µg/mL.
Turning to `Nc1nc(/C(=N/O[C@H](C(=O)O)c2ccccc2)C(=O)N[C@@H]2C(=O)N3C(C(=O)[O-])=C(C[N+]4(CCNC(=O)c5ccc(O)c(O)c5Cl)CCCC4)CS[C@H]23)cs1`, the MIC worked out at 0.25 µg/mL in the test on Pseudomonas aeruginosa [1]; 0.25 µg/mL in the test with Pseudomonas aeruginosa [2]; 0.5 µg/mL with Pseudomonas aeruginosa [3]; 0.125 µg/mL with Pseudomonas aeruginosa [4]; 4 µg/mL with Pseudomonas aeruginosa [5]; 0.5 µg/mL in the test on Pseudomonas aeruginosa [6]. For the same compound, the minimum inhibitory concentration (MIC) in test [7] amounted to 0.25 µg/mL; in the test with Acinetobacter baumannii, 0.25 µg/mL; with Klebsiella pneumoniae, 0.031 µg/mL; with Escherichia coli, 0.5 µg/mL.
Turning to `CC(C)(O/N=C(\C(=O)N[C@@H]1C(=O)N2C(C(=O)[O-])=C(C[N+](C)(C)C3CCN(C(=O)c4ccc(O)c(O)c4Cl)CC3)CS[C@H]12)c1csc(N)n1)C(=O)O`, the MIC in the test on Pseudomonas aeruginosa [1] is 0.5 µg/mL; with Pseudomonas aeruginosa [2] it was 1 µg/mL; in the test with Pseudomonas aeruginosa [3], 4 µg/mL; with Pseudomonas aeruginosa [4] it was 0.5 µg/mL; in the test with Pseudomonas aeruginosa [5], 4 µg/mL; with Pseudomonas aeruginosa [6] it was 1 µg/mL. The MIC in [7] was 1 µg/mL; in the test on Acinetobacter baumannii it was 2 µg/mL; in the test with Klebsiella pneumoniae, 0.125 µg/mL; in the test with Escherichia coli, 2 µg/mL.
On to `CC(C)(O/N=C(\C(=O)N[C@@H]1C(=O)N2C(C(=O)[O-])=C(C[N+]3(CCNC(=O)c4[nH]cc(O)c(=O)c4Cl)CCCC3)CS[C@H]12)c1csc(N)n1)C(=O)O`, for which the MIC in the test on Pseudomonas aeruginosa [1] was 2 µg/mL; in the test with Pseudomonas aeruginosa [2], 24 µg/mL; in the test with Pseudomonas aeruginosa [4], 4 µg/mL; in the test on Pseudomonas aeruginosa [5], > 32 µg/mL; in the test on Pseudomonas aeruginosa [6], 8 µg/mL; in test [7], 4 µg/mL. For the same compound, the MIC in the test with Acinetobacter baumannii was 32 µg/mL; in the test on Klebsiella pneumoniae, 2 µg/mL; in the test with Escherichia coli, 16 µg/mL.
As for `COc1c(O)ccc(C(=O)NCC[N+]2(CC3=C(C(=O)[O-])N4C(=O)[C@@H](NC(=O)/C(=N\OC(C)(C)C(=O)O)c5csc(N)n5)[C@H]4SC3)CCCC2)c1Cl`, the MIC in the test on Pseudomonas aeruginosa [1] is 2 µg/mL; with Pseudomonas aeruginosa [2] it was 8 µg/mL; in the test with Pseudomonas aeruginosa [3] it was 32 µg/mL; with Pseudomonas aeruginosa [4], 16 µg/mL; in test [7], 28 µg/mL; with Acinetobacter baumannii it was > 32 µg/mL. The MIC in the test on Klebsiella pneumoniae came out at 4 µg/mL; in the test on Escherichia coli, 16 µg/mL.
In the case of `CN(CC[N+]1(CC2=C(C(=O)[O-])N3C(=O)[C@@H](NC(=O)/C(=N\OC(C)(C)C(=O)O)c4csc(N)n4)[C@H]3SC2)CCCC1)C(=O)c1ccc(O)c(O)c1Cl`, the minimal inhibitory concentration (MIC) in the test with Pseudomonas aeruginosa [1] turned out to be 0.5 µg/mL; in the test on Pseudomonas aeruginosa [2], 0.5 µg/mL; in the test on Pseudomonas aeruginosa [3], 1 µg/mL; with Pseudomonas aeruginosa [4], 0.125 µg/mL; in the test on Pseudomonas aeruginosa [5], 1 µg/mL; in the test on Pseudomonas aeruginosa [6], 0.5 µg/mL. Moreover, the minimum inhibitory concentration (MIC) in test [7] is 0.25 µg/mL.
